Data: patent US20140322252A1, “Peptides for Treating Alzheimers's Disease and Related Conditions” (priority 2013, published 2014)

Columns and labels:
CCR2 = CCR2 (Homo sapiens, UniProt P41597); details: published, Padi 2012; cited from earlier work
[1] = Pharmacokinetic study of RAP-103 in male Sprague Dawley rat, LC-MS/MS; format: in vivo
Description: A pharmacokinetic study of all-D-TTNYT (SEQ ID NO:2) (RAP-103) following intravenous and oral administration was conducted at a target dose level of 1 mg/kg in the male Sprague Dawley rat. The concentration of RAP-103 in each plasma and brain sample was measured using a suitable LC-MS/MS assay. The assay used was a research grade assay (RGA-1) which was established by assessing the accuracy, precision and the linearity of the method. Plasma concentrations generated were used to evaluate the pharmacokinetic parameters of all-D-TTNYT (SEQ ID NO:2) (RAP-103).
The dose formulation was administered intravenously to some animals as a slow bolus over ca 30 s via the tail vein and to a different group of animals orally via gastric gavage at a target dose volume of 1 mL/kg, to achieve a target dose level of 1 mg/kg. The dose volume administered was calculated according to the bodyweight of the animal on the day of dosing. The weight of administered dose was recorded. […] Results of the study show oral boavailibity of the all-D-peptide was achieved, results are in Table 1

[2] = tested on: rats with partial ligation of the sciatic nerve; details: cited from earlier work
[3] = tested on: cofilin-actin rods in hippocampal neurons
CCR8 = molecular target: T1, CCR8 (Homo sapiens, UniProt P51685); format: cell-based; details: for inhibition of CCL1 (I-309) mediated chemotaxis / CCR8 function: M2 type monocyte derived macrophages, CCL1 1 nM
T1 construct: required maturation with M-CSF for 48 hrs to up-regulate expression of CCR8; endogenous in cells; host or cells: human monocytes isolated by Ficoll-Percoll gradient, matured with M-CSF for 48 hours (M2-type macrophages)
T1 sequence (P51685 whole entry): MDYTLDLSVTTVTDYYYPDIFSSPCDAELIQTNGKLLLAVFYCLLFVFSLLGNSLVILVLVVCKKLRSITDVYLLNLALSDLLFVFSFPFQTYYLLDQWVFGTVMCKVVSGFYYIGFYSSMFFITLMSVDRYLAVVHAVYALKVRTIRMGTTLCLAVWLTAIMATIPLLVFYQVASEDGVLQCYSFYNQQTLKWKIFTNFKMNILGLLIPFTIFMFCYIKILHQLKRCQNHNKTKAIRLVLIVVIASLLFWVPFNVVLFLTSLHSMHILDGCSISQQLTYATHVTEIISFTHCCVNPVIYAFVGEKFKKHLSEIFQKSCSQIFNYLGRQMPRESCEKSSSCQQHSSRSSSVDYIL
Description: Human monocytes isolated by Ficoll-Percoll gradient were cultured in complete growth medium (RPMI1640, supplemented with 10% FBS and 4 mM L-glutamine) in presence of M-CSF for 48 hours. Resting monocytes, as freshly isolated, were not responsive to CCL1, which required maturation with M-CSF for 48 hrs to up-regulate expression of CCR8, so-called “M2” type macrophages. […] The data represent the mean of triplicate determinations of a representative experiment.

[4] = tested on: APPSwDI/NOS2−/− transgenic mouse; details: 0.4 mg/kg p.o. once-a-day, 9 months of age, RAWM
Description: We tested yet a further all-D-amino acid modified peptide for oral bioavailability and protection to memory losses in an animal AD model.
Both Transgenic (CVN) and wild-type (WT) mice were used: WT mice were treated orally (p.o.) with vehicle; while CVN mice treated p.o. with either vehicle or treated p.o. with RAP-310, 0.4 mg/kg. At the age of 4.5 to 5 months the mice were subjected to once-a-day oral vehicle or RAP-310. After 1 month of treatment, starting at the age of 6 months, the mice were subjected to radial arm water maze testing.

LPS-infused rats = details: 0.01 mg/kg, s.c., 14 days, cited from earlier work
[5] = tested on: NBM lesioned aged Sprague-Dawley rats; details: bilateral NBM lesions, 1 mg IP daily for 5 months; cited from earlier work
[6] = tested on: CCL2 (MCP-1) chemotaxis of human monocytes; test: CCL2-mediated human monocyte chemotaxis (FIG. 1); format: cell-based; details: FIG. 1, direct comparison among all RAPs
Description: Triplicate determinations were made and results are expressed as the mean plus or minus SEM. The experiment shown is a direct comparison among all RAPs. Statistical analysis was by unpaired t-test, with significance set at the p<0.01 (*) level for difference from CCL2 only chemotaxis.

CCR2, sequence (P41597 whole entry): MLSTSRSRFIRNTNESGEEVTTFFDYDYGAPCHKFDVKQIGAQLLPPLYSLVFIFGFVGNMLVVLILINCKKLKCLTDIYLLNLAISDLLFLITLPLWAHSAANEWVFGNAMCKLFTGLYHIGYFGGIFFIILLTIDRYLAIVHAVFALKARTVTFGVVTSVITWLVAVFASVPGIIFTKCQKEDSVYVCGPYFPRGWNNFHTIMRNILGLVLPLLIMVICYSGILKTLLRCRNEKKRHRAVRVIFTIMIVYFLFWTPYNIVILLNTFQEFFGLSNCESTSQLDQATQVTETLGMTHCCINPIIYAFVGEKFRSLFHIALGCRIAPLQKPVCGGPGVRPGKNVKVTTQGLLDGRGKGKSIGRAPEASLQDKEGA

Row | Compound | activity to block MCP-1 human monocyte chemotaxis (CCR2) | concentration in male rat plasma ([1]; intravenous, 1 mg/kg, nominal time 0.5 h, individual animals) [ng/mL] | time of peak plasma levels ([1]; rat, 1 mg/kg) [min] | detection in plasma ([1]; rat, 5 minutes (0.083 hrs) after dosing, continues at 1 hr) | already established hypersensitivity ([2]; 0.2-1 mg/kg, days 8 to 12) | development of thermal hyperalgesia ([2]; oral 0.05-1 mg/kg for 7 days) | mechanical allodynia ([2]; oral 0.05-1 mg/kg for 7 days) | spinal microglial activation and monocyte infiltration ([2]; peripheral nerve injury) | EC50 [3] [pM] | block of TNFα caused cofilin-actin rod stress response [3] | potency to block CCR8 compared with DAPTA (CCR8; FIG. 3) | inhibition of CCL1 (I-309) mediated chemotaxis / CCR8 function (CCR8) | less errors in block 5 compared to CVN vehicle treated mice [4] [%] | less errors in sum scores for Day 1 compared to CVN vehicle treated mice [4] [%] | number of activated microglia and astrocytes (LPS-infused rats; vs vehicle) | number of immunoreactive cells expressing NfKb (LPS-infused rats) | lesion-induced decreases in cortical thickness [5] | loss of large neurons in layer V [5] | potency to block CCL2 (MCP-1) chemotaxis [6] | potency to block CCL2 (MCP-1) chemotaxis ([6]; listed as RAP-101)
1 | C[C@H](O)[C@@H](N)C(=O)N[C@@H](C(=O)N[C@H](CC(N)=O)C(=O)N[C@H](Cc1ccc(O)cc1)C(=O)N[C@@H](C(=O)O)[C@H](C)O)[C@H](C)O [RAP-103, All-D-TTNYT] | block | 561 | 10 to 15 | detected | reverses | inhibits | fully prevents | reduce | – | – | – | – | – | – | – | – | – | – | – | –
2 | C[C@H](O)[C@@H](NC(=O)[C@@H](Cc1ccc(O)cc1)NC(=O)[C@@H](CC(N)=O)NC(=O)[C@H](NC(=O)[C@H](NC(=O)[C@H](NC(=O)[C@@H](CO)NC(=O)[C@@H](C)N)[C@H](C)O)[C@H](C)O)[C@H](C)O)C(=O)O [RAP-310] | – | – | – | – | – | – | – | – | ~0.1 | comparably blocked | comparable potency | Inhibit | 50 | 30 | – | – | – | – | – | –
3 | D-ala1-STTTNYT-NH2 [DAPTA] | – | – | – | – | – | – | – | – | – | – | – | Inhibit | – | – | dramatically reduced | reduced | prevented or attenuated | attenuated | most potent | greater potency
